Measured values from ChEMBL document CHEMBL2401614, “Synthesis of artemisinin dimers using the Ugi reaction and their in vitro efficacy on breast cancer cells” (Bioorg Med Chem Lett, 2013).

Assays:
BT-474 [1] = assay: Cytotoxicity against human BT474 cells after 48 hrs by MTT assay; type: functional, cell-based; details: BT-474, 48 h
MCF-10A [2] = assay: Selectivity index, ratio of IC50 for human MCF10A cells to IC50 for human MDA-MB-231 cells; type: functional
MDA-MB-231 = assay: Cytotoxicity against human MDA-MB-231 cells after 48 hrs by MTT assay; type: functional, cell-based; details: MDA-MB-231, 48 h
MCF-10A [3] = assay: Selectivity index, ratio of IC50 for human MCF10A cells to IC50 for human BT474 cells; type: functional
[4] = Cytotoxicity against human NCI60 cells relative to artesunate; type: functional
MCF-10A [5] = assay: Cytotoxicity against human MCF10A cells after 48 hrs by MTT assay; type: cell-based
BT-474 [6] = assay: Ratio of artemisinin dimer succinate IC50 to compound IC50 for human BT474 cells; type: functional

SMILES	IC50 (BT-474 [1])	Ratio IC50 (MCF-10A [2])	IC50 (MDA-MB-231)	Ratio IC50 (MCF-10A [3])	fold change (FC) [4]	IC50 (MCF-10A [5])	Ratio IC50 (BT-474 [6])
C[C@H]1[C@@H](CC(COC(=O)CCC(=O)O)C[C@H]2O[C@@H]3O[C@@]4(C)CC[C@H]5[C@H](C)CC[C@@H]([C@H]2C)[C@@]35OO4)O[C@@H]2O[C@@]3(C)CC[C@H]4[C@H](C)CC[C@@H]1[C@@]24OO3 (stereo not given in full)	0.1 µM	88	0.24 µM	210	<=500	21 µM	–
C[C@H]1[C@@H](CCCN(c2c(F)c(F)cc(F)c2F)C(CC[C@H]2O[C@@H]3O[C@@]4(C)CC[C@H]5[C@H](C)CC[C@@H]([C@H]2C)[C@@]35OO4)C(=O)NCC(=O)O)O[C@@H]2O[C@@]3(C)CC[C@H]4[C@H](C)CC[C@@H]1[C@@]24OO3 (stereo not given in full)	0.012 µM	43	2.3 µM	8200	–	98 µM	8
COC(=O)CNC(=O)C(CC[C@H]1O[C@@H]2O[C@@]3(C)CC[C@H]4[C@H](C)CC[C@@H]([C@H]1C)[C@@]24OO3)N(C(=O)c1ccccc1)C(C)C (stereo not given in full)	> 100 µM	–	> 100 µM	–	–	> 100 µM	–
COC(=O)CNC(=O)C(CC[C@H]1O[C@@H]2O[C@@]3(C)CC[C@H]4[C@H](C)CC[C@@H]([C@H]1C)[C@@]24OO3)N(CCC[C@H]1O[C@@H]2O[C@@]3(C)CC[C@H]4[C@H](C)CC[C@@H]([C@H]1C)[C@@]24OO3)C(=O)C(F)(F)F (mixture of isomers)	6.6 µM	0.24	19 µM	0.7	–	4.6 µM	–
COC(=O)CNC(=O)C(CC[C@H]1O[C@@H]2O[C@@]3(C)CC[C@H]4[C@H](C)CC[C@@H]([C@H]1C)[C@@]24OO3)N(CCC[C@H]1O[C@@H]2O[C@@]3(C)CC[C@H]4[C@H](C)CC[C@@H]([C@H]1C)[C@@]24OO3)C(=O)c1ccccc1 (mixture of isomers)	0.79 µM	0.45	11 µM	6.3	–	5 µM	–
COC(=O)CNC(=O)C(CC[C@H]1O[C@@H]2O[C@@]3(C)CC[C@H]4[C@H](C)CC[C@@H]([C@H]1C)[C@@]24OO3)N(CCC[C@H]1O[C@@H]2O[C@@]3(C)CC[C@H]4[C@H](C)CC[C@@H]([C@H]1C)[C@@]24OO3)C(=O)c1cccc(OC)c1OC (mixture of isomers)	5.8 µM	0.48	12 µM	0.98	–	5.7 µM	–
COC(=O)CNC(=O)C(CC[C@H]1O[C@@H]2O[C@@]3(C)CC[C@H]4[C@H](C)CC[C@@H]([C@H]1C)[C@@]24OO3)N(CCC[C@H]1O[C@@H]2O[C@@]3(C)CC[C@H]4[C@H](C)CC[C@@H]([C@H]1C)[C@@]24OO3)C(=O)c1ccc(N(C)C)cc1 (mixture of isomers)	0.88 µM	1.3	12 µM	17	–	15 µM	–
COC(=O)CNC(=O)C(CC[C@H]1O[C@@H]2O[C@@]3(C)CC[C@H]4[C@H](C)CC[C@@H]([C@H]1C)[C@@]24OO3)N(CCC[C@H]1O[C@@H]2O[C@@]3(C)CC[C@H]4[C@H](C)CC[C@@H]([C@H]1C)[C@@]24OO3)C(=O)c1cnccn1 (mixture of isomers)	1.7 µM	0.96	26 µM	15	–	25 µM	–
COC(=O)CNC(=O)C(CC[C@H]1O[C@@H]2O[C@@]3(C)CC[C@H]4[C@H](C)CC[C@@H]([C@H]1C)[C@@]24OO3)N(CCC[C@H]1O[C@@H]2O[C@@]3(C)CC[C@H]4[C@H](C)CC[C@@H]([C@H]1C)[C@@]24OO3)c1ccc([N+](=O)[O-])cc1 (mixture of isomers)	0.096 µM	39	1.2 µM	490	–	47 µM	–
C[C@H]1[C@H](OC(=O)CCC(=O)O)O[C@@H]2O[C@@]3(C)CC[C@H]4[C@H](C)CC[C@@H]1[C@@]24OO3 [ARTESUNATE]	7.8 µM	0.46	46 µM	2.7	–	21 µM	–
